# Source: publication PMC2868067 (Molecular cancer therapeutics, 2010)
# Test system: kinases in the Src family
# Conditions: read-out: apparent IC50, Srctide; multiplexed, treated K-562 lysates (Figure 6A)
smiles,measurement,value
"Cc1nc(Nc2ncc(C(=O)Nc3c(C)cccc3Cl)s2)cc(N2CCN(CCO)CC2)n1 [dasatinib, N-(2-chloro-6-methyl-phenyl)-2-(6-(4-(2-hydroxyethyl)-piperazin-1-yl)-2-methylpyrimidin-4-ylamino)thiazole-5-carboxamide]",IC50,1.1 nM
